The values below are quoted from earlier work in patent US20150328159A1, “Composition” (Innovata Limited, priority 2009, published 2015).

Take hyaluronic acid: the “solubility in organic solvents” value is given as “insoluble”.
